Assay results taken from patent US20070275935A1, “Estratriene Derivatives” (priority 2003, published 2007).

How the values were obtained:
cyclin D1 = assay: Thrombin-mediated cyclin D1 protein expression in HASM (Western blotting); format: cell-based, human; conditions: 0.01 μM-1 μM pre-incubation; thrombin 0.3 U/ml, 8 h
Experimental: Human airway smooth muscle cells were cultured as described above in the proliferation experiments. Cells were serum-deprived for 24 h and stimulated with thrombin (0.3 U/ml) for 8h before harvest of protein for Western Blotting of cyclin D1.

[1] = system: bleomycin-induced fibrosis in C57BL6 female mice; assay: Bleomycin model of pulmonary fibrosis in mice; format: in vivo; conditions: 4NO 50 mg/kg/day i.p.
Experimental: The activity of CP-DM-2-11-7 was investigated using a bleomycin model of pulmonary fibrosis (Underwood et al. 2000). 4NO was administered daily commencing on the day of the bleomycin challenge, 2 hours before the mice received bleomycin. The 4NO (50 mg/kg/day, by intraperitoneal injection) was then administered throughout the 14 day period. The mice also received a daily injection of bromo-deoxyuridine (BrdU) by intraperitoneal injection). The other two groups of mice), control and bleomycin-treated received a daily intraperitoneal injection of the vehicle containing BrdU. The vehicle comprised 10% dimethyl sulphoxide in peanut oil. […]
Body weight was measured throughout the experiment. […] After a 5 minute stabilization period, values of resistance and compliance were recorded and the animal was killed by a lethal dose of pentabarbitone.
Half of each group of animals was then subjected to bronchoalveolar lavage (BAL) to generate BAL fluid (BALF) in which the number of infiltrating cells was counted by haemocytometry. […]
Tissue areas reported in Table 6 were determined by capturing images of the lung section at a 100 times magnification and importing those images into a powerpoint file. […]
A 36 point overlay was then applied to the captured image and the number of grid points that intersect with tissue was determined for each of the 10 selected fields. […]

COc1cc2c(cc1O)C(=NOCc1ccc([N+](=O)[O-])cc1)C[C@@H]1[C@@H]2CC[C@]2(C)[C@@H](O)CC[C@@H]12 [CP-DM-2-11-7, 2-methoxy-6-(4-nitrobenzyloxy)iminoestradiol]
cyclin D1 protein levels (cyclin D1): concentration-dependent reduction in the cyclin D1 protein levels
Proliferation Epithelial ([1]; BrdU positive nuclei as percentage of total nuclei, major airway, n = 6, bleomycin alone 4.646 ± 0.8564): 3.802 ± 0.9053
Parenchymal Cell Prolif. ([1]; magnification of 600×, bleomycin alone 1340 ± 287): 738 ± 185 positive cells/10^6 pixels
